{
  "source": "patent US10844404B2",
  "about": "“Engineered microorgansims and methods for improved crotyl alcohol production” (priority 2015, dated 2020)",
  "key": {"[1]": {"tested_on": "E. coli ATCC 8739 C strains", "assay": "Crotyl alcohol tolerance study (Bioscreen growth curves, turbidity OD420-580)", "assay_type": "cell-based", "settings": "138 mM crotyl alcohol, FIG. 5B", "method": "(§1) E. coli Str. K-12 substr. MG1655 strains 48 (wildtype) and 3-FEDB with multiple deletions (ΔyahkΔadhPΔyqhDΔadhE); and E. coli ATCC 8739 C strains (wildtype) and its variants 3-FISC (ΔadhE), 3-GAEB (ΔadhEΔyqhD), 3-GBOG (ΔadhEΔyqhDΔadhP), and 3-GDOB (ΔadhEΔyqhDΔadhPΔyahK) were struck for single colonies on LB agar from a glycerol freezer stock. Four single colonies per strain were picked and inoculated into 1 mL LB+55.7 mM glucose in deep well 96 well plates and grown at 37° C. overnight (16-20 hours). The optical density of the overnight culture was taken and cells were normalized to OD600=1 and spun down. Cells were resuspended in 1 mL of M9 minimal media+11.1 mM glucose. Cells were then spun down and washed again in 1 mL M9+11.1 mM glucose. Bioscreen honeycomb 2 plates (Cat. No. 9502550) were filled with 198 μL M9+11.1 mM glucose or M9+11.1 mM glucose+138 mM crotyl alcohol (Sigma-Aldrich). 2 μL washed cells were added to each well at N=4. Bioscreen honeycomb 2 plates were loaded into a bioscreen C MBR (Oy Growth Curves Ab Ltd) machine, an incubator system set to read turbidity at OD420-580 every 15 minutes at 37° C. For growth curve data, see FIG. 4A (E. coli Str. K-12 substr. MG1655 strains) and FIG. 4B (E. coli ATCC 8739 C variant strains)."}, "[2]": {"tested_on": "E. coli Str. K-12 substr. MG1655 strains", "assay": "Crotyl alcohol tolerance study (Bioscreen growth curves, turbidity OD420-580)", "assay_type": "cell-based", "settings": "138 mM crotyl alcohol, M9+11.1 mM glucose, 37° C., FIG. 4B", "method": "as §1"}},
  "data": [
    {"smiles": "CC=CCO", "note": "[crotyl alcohol, but-2-en-1-ol]", "values": [
      {"measurement": "growth in the presence of crotyl alcohol", "setting": "[1]; M9+11.1 mM glucose, 37° C., wild-type or parental strain", "value": "growth is inhibited"},
      {"measurement": "growth in the presence of crotyl alcohol", "setting": "[1]; strain 3-FIDC (ΔadhE)", "value": "inhibited"},
      {"measurement": "growth in the presence of crotyl alcohol", "setting": "[1]; strain 3-GAEB (ΔadhEΔyqhD)", "value": "inhibited"},
      {"measurement": "growth in the presence of crotyl alcohol", "setting": "[1]; strain 3-GBOB (ΔadhEΔyqhDΔadhP)", "value": "while showing an initial lag grew on crotyl alcohol"},
      {"measurement": "growth in the presence of crotyl alcohol", "setting": "[1]; strain 3-GBOG (ΔyahKΔadhPΔyqhDΔadhE)", "value": "while showing an initial lag grew on crotyl alcohol"},
      {"measurement": "growth in the presence of crotyl alcohol", "setting": "[2]; strain 3-FEDB (ΔyahKΔadhPΔyqhDΔadhE)", "value": "while showing an initial lag grew on crotyl alcohol"},
      {"measurement": "growth in the presence of crotyl alcohol", "setting": "[2]; wild-type or parental strain (48)", "value": "growth is inhibited"}
    ]}
  ]
}
